One experiment has as its system Upd3-JAK-STAT pathway. The experiment can be described thus: Epithelial cell renewal program and Upd3-JAK-STAT reporter analysis. It is filed as in vivo, Drosophila. As to the method:
To examine a renewal program for epithelial cells, a 5% sucrose solution containing 20 nM of uracil (for 16 hours) or different bacteria (approx. 5×10^8 cells; E. carotovora, E. carotovora-pyrE::Tn5 and E. carotovora-pyrE::Tn5-pyrE for 22 hours) was orally administered to genetically different adult Drosophila (5 to 6 days old). For the recovery experiment, Drosophila coingested URA− strain (E. carotovora-pyrE::Tn5) and 1 nM of uracil. Following the dissection of the gut, the gut was treated with primary antibodies [anti-phospho-histone H3 (1:2000 dilution; Millipore), anti-LacZ (1:1000 dilution; Cappel), or anti-Prospero (1:100 dilution; Developmental Studies Hybridoma Bank)]. Then, the gut was treated with secondary antibodies (Alexa Fluor 568 goat anti-rabbit IgG or Alexa Fluor 488 goat anti-murine IgG (Invitrogen)). DAPI was used for nuclear staining.
Drosophila containing esg-GAL4> UAS-GFP were used to analyze ISC proliferation and differentiation. A 5% sucrose solution containing 20 nM of uracil (for 16 hours) or different bacteria (E. carotovora, E. carotovora-pyrE::Tn5, and E. carotovora-pyrE::Tn5-pyrE, approx. 5×10^8 cells, for 22 hours) was orally administered to Drosophila (5 to 6 days old). For the recovery experiment, Drosophila coingested a URA− strain (E. carotovora-pyrE::Tn5) and 1 nM of uracil. […]

The next experiment deals with DUOX2. The experiment can be described thus: ROS measurement in human epithelial cells (Caco-2, NHNE; DCF-DA). It is filed as cell-based. Particulars: uracil 50 nM, 15 minutes; Caco-2 and normal human nasal epithelial cells. The text has this:
Human middle turbinated bone specimens were obtained from healthy volunteers after the research proposal was approved by Yonsei University College of Medicine Audit Committee. The culture system used for normal human nasal epithelial (NHNE) cells is disclosed in the previous research (Yoon et al., Am J Respir Cell Mol Biol 16, pp. 724-731, 1997; Yoon et al., Ann Otol Rhinol Laryngol 109, pp. 594-601, 2000). Briefly speaking, two passages of NHNE cells (1×10^5 cells/culture) were inoculated into a Transwell-transparent culturing insert characterized by 24.5 mm and 0.45 μm pore sizes (Costar Co., Corning, N.Y., USA) containing 0.5 mL of culturing media. The cells were cultured in a 1:1 mixture containing basic epithelium growth media including all additives disclosed in the previous research (Yoon et al., Ann Otol Rhinol Laryngol 109, pp. 594-601, 2000) and Dulbecco' s Modified Eagle Medium (DMEM). […]
After stimulating NHNE cells or Caco-2 cells, the cells were washed with Hanks' balanced salt solution (HBSS), were placed in Krebs-Ringer solution containing 5 μM of 2′,7′-dichlorofluorescin diacetate (DCF-DA; Molecular Probes, Eugene Oreg., USA), and cultured in darkness for 10 minutes. […] Fluorescence was measured at an excitation wavelength of 488 nm and an emission wavelength ranging from 515 nm to 540 nm. […]

This note sets out measurements from patent publication US10092566B2, “Composition for controlling a gut immunity and use thereof” (SEOUL NATIONAL UNIVERSITY R&DB FOUNDATION, priority 2013, dated 2018).

SMILES strings stand for the structures.

`O=c1cc[nH]c(=O)[nH]1` [uracil]: the “restoration of infection-induced Upd3-JAK-STAT signaling, ISC proliferation, differentiation and enteroblast accumulation” value in the experiment on Upd3-JAK-STAT pathway (coingestion of 1 nM uracil with URA− strain E. carotovora-pyrE::Tn5) is given as “sufficient to restore”. Further, in the experiment with Upd3-JAK-STAT pathway (uracil 20 nM, PLCβ-dependent), the “Upd3-JAK-STAT pathway activation and epithelial cell renewal by uracil ingestion alone” value is “sufficient to trigger”. Besides, the “DUOX-dependent ROS generation in human mucosal epithelial cells” value in the experiment with DUOX2 is “able to activate DUOX-dependent ROS generation”.
